Source: US20250090475A1, “DRUG-LOADED AMINO ACID BASED POLY (ESTERUREA)FILMS FOR CONTROLLED LOCAL RELEASE OF NON-OPIOID ANALGESIC COMPOUNDS” (MERK SHARP & DOHME CORP., priority 2020, published 2025)

How the values were obtained:
[1] = In vitro etoricoxib release from PEU films, USP Apparatus 7, PBS; format: physicochemical; details: about 6 mg in USP 7, PBS, n=3
[2] = Etoricoxib solubility in the release media; format: physicochemical; details: used in Higuchi equation
Method: D=(slope/A)^2/2CCs • Where the slope is the amount of drug released at time t divided by the square root of time, A is the area of the film, C is the initial drug concentration (or the drug-load in the polymer), CS is the drug solubility in the media (0.5 mg/mL) and D is the diffusivity constant. This constant not only indicates the mobility of the drug from the film into the media, but also can be used to calculate for the time of total release using the maximum amount of drug within the film (Table 11).

[3] = 90 mg etoricoxib dosed patients in comparison to diclofenac at 150 mg; oral; cited from earlier work

## Cc1ccc(-c2ncc(Cl)cc2-c2ccc(S(C)(=O)=O)cc2)cn1 [etoricoxib]
[1]
  time at which free drug release reached a plateau: ~1 days
[2]
  drug solubility in the media (CS): 500 µg/mL
[3]
  gastrointestinal events: decrease in gastrointestinal events
  risk of edema and hypertension: dose-dependent increased risk
